Assay results as given in a melting point compilation (Tetko et al.; mined from patent text by program, amines drawn as free bases though some values may be those of a salt).

Compound `Cc1c(C(=O)O)cnn1-c1nc(-c2ccc(Cl)c(Cl)c2)cs1` has a melting point of 278 to 279 °C. `CON(C)C(=O)c1ccc(C(F)(F)F)cc1O` showed a melting point of 69 to 70 °C. Work on `CCOC(=O)c1cn(Cc2ccccc2OC)c2c(F)c(F)c(F)cc2c1=O` yielded a melting point of 203 to 204 °C. In the case of `Clc1ccc2nc(N3CCN(c4ncccc4Cl)CC3)[nH]c2c1`, the melting point is reported as 214 to 215 °C. Work on `COc1ccc2c(c1)c(CC(=O)OCCNC(=O)C1=CN(C)C=CC1)c(C)n2C(=O)c1ccc(Cl)cc1` yielded a melting point of 60 to 65 °C. With `O=C1CCCC(C(Sc2ccccc2)c2ccccc2)O1` (centres undefined) the melting point was 82 to 84 °C. In the case of `O=C1COc2ccc(C3=Cc4ccc(NCCO)cc4SC3c3ccccc3)cc2N1` (centres undefined), the melting point is reported as 201 to 202 °C. Work on `O=C(O)c1ccc(OCCCCl)cn1` yielded a melting point of 120 to 121 °C. With `O=C(/C=C/c1cccc(S(=O)(=O)N2CCN(CC(c3ccccc3)c3ccccc3)CC2)c1)NO` the melting point was 117 °C. With `Cc1ccc(S(=O)(=O)Oc2ccc3c4c(nn3CCCN)-c3cnccc3C(=O)c24)cc1` the melting point was 211 to 213 °C. Compound `COc1cc(COc2ncccc2CC(=O)O)ccc1OCc1nc(-c2ccccc2)oc1C` has a melting point of 145 to 146 °C. Compound `CN1C(=O)Cc2cc(C(=O)CN3CCN(c4ccccc4)CC3)cnc21` has a melting point of 136 to 137 °C. `CC(=O)Nc1ccc(N(C)C(=O)OCc2ccccc2)c(O)c1` showed a melting point of 174 °C. `NC(=O)c1c(Cl)c(-c2ccccc2)n2c1CN(S(=O)(=O)c1ccc(Cl)c(Cl)c1)CC2` showed a melting point of 192 to 193 °C. `CSC(c1ccccc1)S(=O)c1ccccc1` (centres undefined) showed a melting point of 104 to 105 °C. `CC(C)(Sc1nc2ccccc2cc1-c1ccccc1)C(=O)O` gave a melting point of 144 to 146 °C. With `CC(C)(CO)NS(=O)(=O)c1cc(NC(=O)c2cnn3c(C(F)F)cc(-c4ccc(C(F)(F)F)cc4)nc23)c(Cl)s1` the melting point was 233 °C. `CC(Cc1cc([N+](=O)[O-])cc2ccoc12)NC(=O)OC(C)(C)C` (centres undefined) gave a melting point of 131 to 132 °C. Work on `O=C(O)c1cccc(CCl)c1` yielded a melting point of 134 to 136 °C. `CCNC(=O)c1c([Si](C)(C)C)ccc(C(F)F)c1Cl` gave a melting point of 120 to 121 °C. With `COC(=O)c1ccc([N+](=O)[O-])s1` the melting point was 74 °C. With `CCCCc1nc(C#N)c(C#N)n1Cc1ccc(N)cc1` the melting point was 99 to 104 °C. Work on `N[C@@H]1CN(c2c(F)cc3c(=O)c(C(=O)O)cn(C4CC4)c3c2F)C[C@@H]1n1ccnn1` (relative stereo) yielded a melting point of 245 to 247 °C. With `CN1C(=O)N(CC(COc2ccc(-c3ccc(S(N)(=O)=O)cc3)cc2)N(O)C=O)C(=O)C1(C)C` (centres undefined) the melting point was 203 to 205 °C. Work on `CCOC(=O)CC1Nc2ccccc2CC(N)C1=O` (centres undefined) yielded a melting point of 71 to 73 °C. `COc1ccc(Oc2cc3nc(-c4ccc(Cl)cc4Cl)oc3cc2[N+](=O)[O-])cc1` showed a melting point of 144 to 146 °C. In the case of `CC(C)C[C@@H](C=NNC(N)=O)NC(=O)[C@H](Cc1c[nH]cn1)NC(=O)C(CCCCc1ccccc1)Cc1cccc2ccccc12` (some centres undefined), the melting point is reported as 108 to 114 °C. Compound `Cc1c(C(=O)O)sc2cncc(Oc3ccc(Cl)cc3)c12` has a melting point of 315 to 317 °C. Work on `COC(=O)Cc1cc(Br)c(Sc2ccc(O)c(Cc3ccc(Cl)nn3)c2)c(Br)c1` yielded a melting point of 133 to 135 °C. Compound `CC(C)c1ccc(C(C)C)n1NC1=NCCN1` has a melting point of 230 to 232 °C. In the case of `O=C1Nc2cccc(-c3ccccc3)c2/C1=C/c1ccc[nH]1`, the melting point is reported as 184 to 185 °C. Work on `CCC1CC(=S)N(c2ccc3oc(=O)c(N4C(=O)C(CC)CC4=S)cc3c2)C1=O` (centres undefined) yielded a melting point of 128 to 131 °C. In the case of `COc1cccc(C(=O)Nc2ccc3c(c2)CCC3=O)c1`, the melting point is reported as 203 to 204 °C. Work on `Cc1nn(-c2cc(Sc3ccc(O)cc3)c(Cl)cc2Cl)c(=O)n1C(F)F` yielded a melting point of 228 to 229 °C. Compound `Cn1cc(C2=CCN(CCCn3nnc4ccccc4c3=O)CC2)c2ccccc21` has a melting point of 70 °C. For `COc1ccc(-c2nc(-c3cccs3)c[nH]2)cc1Cl`, the melting point was 82 to 85 °C. Compound `CS(=O)(=O)c1ccc(C2=C(c3ccc(CO)cc3)CCC2)cc1` has a melting point of 114 to 115 °C. With `Cn1c(-c2cnn(-c3c(Cl)cc(C(F)(F)F)cc3Cl)n2)nc(C#N)c1C#N` the melting point was 154 to 156 °C. `CC(C(=O)N1CCCC(C)(C)C1)N(C(=O)CN1C(=O)c2ccccc2C1=O)c1ccccc1` (racemic) gave a melting point of 171 °C. Compound `COc1ccccc1C(=O)NN=C(CC(C)C)c1ccncc1` has a melting point of 130 °C. For `CNC(=O)c1cc(C#N)cc(Cl)c1NC(=O)c1cc(Cl)nn1-c1ncccc1Cl`, the melting point was 197 to 200 °C. `COc1cc(C(=O)Nc2c(C)cc3cn[nH]c3c2C(=O)NC(C)C)n(-c2ncccc2Cl)n1` showed a melting point of 148 to 151 °C. With `CCCCn1c(=O)n(C)c(=O)c2[nH]ncc21` the melting point was 160 to 162 °C. For `CC(C)Nc1c(NCc2ccccc2)cc(C(=O)O)cc1S(N)(=O)=O`, the melting point was 233 to 234 °C. With `COC(=O)c1c(F)cc(OCCNC(=O)C2Cc3ccccc3N2S(=O)(=O)c2ccc(-c3cccc(C(F)(F)F)c3)cc2)cc1F` (centres undefined) the melting point was 68 to 71 °C. For `COc1ccc2oc(Cc3cccc(C(F)(F)F)c3)c(CC#N)c2c1`, the melting point was 116 °C. For `CCOC(=O)CCc1ccc2c(c1)CC(CNS(=O)(=O)c1ccc(Cl)cc1)C2` (centres undefined), the melting point was 90 to 93 °C. `O=C(CCNC(=O)C(Cc1ccccc1)CP(=O)(O)O)OCc1ccccc1` (centres undefined) showed a melting point of 122 to 123 °C. Compound `CN(CCc1ccccc1)C1CCN(C(=O)Nc2ccccc2)CC1` has a melting point of 105 to 107 °C. With `CN1C(=O)CN=C(c2ccccc2Cl)c2cc([N+](=O)[O-])ccc21` the melting point was 220 °C. For `CCOC(=O)COc1ccc(-c2nn(-c3ccccc3)c3ncccc23)cc1`, the melting point was 118 to 120 °C. Compound `Cc1cccc(NC(=O)NC2N=C(c3ccccc3F)c3ccccc3N(CCOC(=O)N3CC4CCC(CC4)C3)C2=O)c1` (racemic) has a melting point of 169 to 171 °C. With `CC(C)=NN=c1scc(C)n1C` the melting point was 139 to 140 °C. Compound `O=[N+]([O-])c1ccc2c(c1)C(c1ccccc1F)=NCc1nc(CO)cn1-2` has a melting point of 230 to 231 °C. With `O=C1C(=O)c2ccccc2C2=C1SCC1(CCN(CCOc3ccc(Cl)cc3)CC1)O2` the melting point was 131 to 133 °C. In the case of `Nc1cccc(S(=O)(=O)NCC(F)(F)F)c1`, the melting point is reported as 131 °C. For `CC(C)(C)c1cc(SCCC(=O)N(C2CCCCC2)C2CCCCC2)cc(C(C)(C)C)c1O`, the melting point was 168 to 172 °C. For `O=[N+]([O-])c1cccc(-c2cc3c(Cl)ncnc3o2)c1`, the melting point was 196 to 205 °C. In the case of `O=Cc1cccc2cncn12`, the melting point is reported as 138 to 140 °C. Compound `COc1ccc2c(c1)CCC(=O)N(C(C)=O)CCCC2=O` has a melting point of 156 to 158 °C. `CNC(=O)C(Cc1ccc(OC)cc1)NC(=O)C(CC(C)C)C(S)CC(=O)NCC(=O)OC(C)(C)C` (centres undefined) showed a melting point of 223 to 226 °C. With `COC(=O)c1cnn(OCCCC2OCCO2)c1` the melting point was 40 to 42 °C. `COC(=O)c1cn(-c2ccc3ccccc3c2)cn1` gave a melting point of 143 to 144 °C. Work on `Cc1ccccc1C1(C#N)C2CC3CC(C2)CC1C3` (centres undefined) yielded a melting point of 80 to 81 °C. `CC(C)(C)c1ccc2c(c1)c(Sc1ccccc1)c(CC(=O)O)n2Cc1ccc(Cl)cc1` gave a melting point of 148 to 150 °C. In the case of `COCc1cn(-c2ccccc2)nc1OCc1ccc(OCc2nc(-c3ccco3)oc2C)c(OC)c1`, the melting point is reported as 121 to 122 °C. With `CCN(CC)C(=O)n1ccc(S(=O)(=O)c2c(C)cccc2OC)n1` the melting point was 71 to 73 °C. `O=C(O)c1ccc(NC(=O)C(CS)Cc2ccccc2)cc1Cl` (centres undefined) showed a melting point of 65 to 70 °C. In the case of `O=C1NCC2(CCN(Cc3ccccc3)CC2)O1`, the melting point is reported as 159 to 161 °C. Work on `CCN1C(=O)C(C)(C)C(=O)N(C)c2cc(CN(CCn3ccc4oc(C)cc4c3=O)Cc3cnccc3Cl)ccc21` yielded a melting point of 114 to 118 °C. With `CS(=O)c1ccc(C2=C(c3ccccc3)C(=O)OC2)cc1` (centres undefined) the melting point was 149 to 150 °C. `CNC(=O)C(Sc1nc2cc(Cl)ccc2s1)c1ccccc1` (centres undefined) gave a melting point of 170 to 171 °C. For `CC1COc2c(C3CC3)c(F)cc3c(=O)c(C(=O)O)cn1c23` (centres undefined), the melting point was 263 to 265 °C. For `O=[N+]([O-])c1ccccc1Oc1ccc(Cl)cc1`, the melting point was 33 to 35 °C. Compound `Cn1nnc(-c2cccc([N+](=O)[O-])c2)n1` has a melting point of 105 °C. Compound `N#Cc1cnn2c1NCC=C2c1ccc(Cl)c(Cl)c1` has a melting point of 254 to 256 °C. For `NNc1nccc(-c2cccc(C(F)(F)F)c2)n1`, the melting point was 103 to 106 °C. In the case of `COC(=O)c1ccc(Oc2cccnc2)c(N)c1`, the melting point is reported as 101 °C. Compound `O=C(NCCOc1ccc(CC(Oc2ccccc2)C(=O)O)cc1Br)c1ccc(-c2ccccn2)cc1` (centres undefined) has a melting point of 83 to 84 °C. In the case of `Cc1nccn1-c1cccc(C2=Nc3cc(O)c(-c4ccccc4F)cc3NC(=O)C2)c1`, the melting point is reported as > 250 °C. `COc1ccc(-c2cc3cc(OC)cc(C(=O)N(C)OC)c3o2)cc1` showed a melting point of 109 to 111 °C. With `COc1cc2ncnc(Nc3ccc(F)c(Cl)c3)c2cc1OCCCC1OCCO1` the melting point was 170 to 171 °C. `O=C(CCc1ccc(Cl)cc1)N1CCC(CCO)CC1` gave a melting point of 88 to 90 °C. `O=C1c2ccccc2C(=O)N1c1nc(Cl)nc(Cl)n1` gave a melting point of 175 to 179 °C. `COc1cc(OC)nc(NC(=O)NS(=O)(=O)c2ncccc2CSC)n1` showed a melting point of 145 to 147 °C. With `O=c1oc2c(c(O)c1C(c1ccccc1)C1CC1)CCCCCCC2` (centres undefined) the melting point was 81.7 to 84 °C. For `CCCc1c(OCCCCCOc2ccccc2CCCCC(=O)O)ccc2c1OCCC2=O`, the melting point was 75 to 76 °C. For `CCCOc1ccc2c(c1)C(=O)C=C2c1ccc2c(c1)OCO2`, the melting point was 90 to 93 °C. `O=[N+]([O-])c1cc(Cl)c(Oc2ccccc2)cc1Oc1ccccc1` showed a melting point of 95 °C. Compound `CC1(c2ccccc2)SC(=Nc2ccc(Cl)cc2)N(Nc2ccccc2)C1=O` (centres undefined) has a melting point of 53 to 54 °C. For `CCCCC(OCC(=O)c1ccccc1)C(F)CC` (centres undefined), the melting point was 39.6 to 40.1 °C. `CCc1nc(SC)nn1-c1ccc(N)cc1` gave a melting point of 132 °C. With `Cc1cc(O)c(C2C=CN(C)CC2)c(O)c1` (centres undefined) the melting point was 241 to 243 °C. In the case of `CCNC(=O)c1c(C)cccc1[Si](C)(C)C`, the melting point is reported as 64 to 66 °C. Compound `CC(=O)c1ccc(-n2c(-c3cc(-c4ccncc4)c(N4CCOCC4)s3)nc3ccccc3c2=O)cc1` has a melting point of 241 to 242 °C. Work on `Oc1cc(-c2ncc(C(F)(F)F)cc2Cl)ccc1Cl` yielded a melting point of 105 to 107 °C. With `O=[N+]([O-])C=C(NCc1ccc(Cl)nc1)NCc1ccc(Cl)nc1` the melting point was 238 to 240 °C. `CC(C)(C)c1ccc([Si](C)(C)COc2cc(C(C)(C)C)c(O)c(C(C)(C)C)c2)cc1` showed a melting point of 114 to 115 °C. Compound `O=[N+]([O-])c1ccc(Oc2ccc(C(F)(F)F)cc2Cl)cc1C=NO` has a melting point of 111 to 115 °C.
